Laboratory results published in ChEMBL document CHEMBL5046251, “Discovery of a Series of Pyrimidine Carboxamides as Inhibitors of Vanin-1” (J Med Chem, 2022).

Assays:
[1] = Intrinsic clearance in human liver microsomes; assay type: ADME, Microsome
[2] = Apparent permeability across apical to basolateral side in RRCK cells; conditions: dog, MDCK
[3] = Lipophilicity, log D of the compound in Octanol/buffer by shake-flask method
[4] = biological target: T1, Biotinidase (Homo sapiens, UniProt P43251); experiment: Inhibition of N-terminal FLAG/His6-tagged human biotinidase expressed in COS cells using biotinyl-7-amino-4-trifluoromethylcoumarin as substrate preincubated for 10 mins followed by substrate addition and measured after 90 mins; assay type: cell-based
T1 sequence (P43251 whole entry): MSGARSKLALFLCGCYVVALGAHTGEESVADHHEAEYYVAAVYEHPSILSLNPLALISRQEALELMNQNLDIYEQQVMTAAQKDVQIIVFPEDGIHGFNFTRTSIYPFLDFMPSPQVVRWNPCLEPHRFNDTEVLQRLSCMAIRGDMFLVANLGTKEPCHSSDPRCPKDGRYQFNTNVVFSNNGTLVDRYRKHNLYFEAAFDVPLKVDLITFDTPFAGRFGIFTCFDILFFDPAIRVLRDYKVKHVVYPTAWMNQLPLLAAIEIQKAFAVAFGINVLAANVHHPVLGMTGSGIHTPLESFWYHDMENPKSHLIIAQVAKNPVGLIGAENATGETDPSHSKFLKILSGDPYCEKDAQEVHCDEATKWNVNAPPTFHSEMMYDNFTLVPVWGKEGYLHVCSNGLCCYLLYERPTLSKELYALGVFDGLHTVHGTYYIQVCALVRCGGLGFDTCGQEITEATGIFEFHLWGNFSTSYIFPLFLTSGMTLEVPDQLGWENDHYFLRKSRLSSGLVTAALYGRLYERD

[5] = biological target: T2, Pantetheinase (Homo sapiens, UniProt O95497); experiment: Inhibition of recombinant N-terminal FLAG/His6-tagged human vanin-1 expressed in CHO cells using Pantetheine-7-amino-4-trifluoromethykournarin as substrate preincubated for 30 mins followed by substrate addition and measured after 60 mins
T2 sequence (O95497 whole entry): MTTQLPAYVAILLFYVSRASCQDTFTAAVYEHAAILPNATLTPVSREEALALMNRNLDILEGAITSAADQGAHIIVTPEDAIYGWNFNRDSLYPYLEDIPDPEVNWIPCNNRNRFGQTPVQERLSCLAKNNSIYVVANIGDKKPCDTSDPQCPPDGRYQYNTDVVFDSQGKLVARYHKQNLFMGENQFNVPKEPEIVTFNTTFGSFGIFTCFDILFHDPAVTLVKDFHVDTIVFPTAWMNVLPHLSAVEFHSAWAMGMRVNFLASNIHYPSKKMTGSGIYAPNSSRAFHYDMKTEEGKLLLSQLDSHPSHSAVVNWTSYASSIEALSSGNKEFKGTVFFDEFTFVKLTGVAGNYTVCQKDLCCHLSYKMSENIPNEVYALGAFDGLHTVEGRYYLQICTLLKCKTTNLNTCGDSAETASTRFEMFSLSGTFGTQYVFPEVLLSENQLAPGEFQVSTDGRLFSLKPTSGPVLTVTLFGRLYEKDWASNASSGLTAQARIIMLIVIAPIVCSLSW

[6] = biological target: T3, Pantetheinase (Homo sapiens) (UniProt O95497); experiment: Binding affinity to recombinant N-terminal FLAG/His6-tagged human vanin-1 expressed in CHO cells assessed as binding constant (Kon) by surface plasmon resonance analysis
T3 sequence (whole entry): T2 sequence (O95497 whole entry)

[7] = biological target: T3, Pantetheinase (Homo sapiens); experiment: Binding affinity to recombinant N-terminal FLAG/His6-tagged human vanin-1 expressed in CHO cells assessed as dissociative half life by surface plasmon resonance analysis
[8] = biological target: T2, Pantetheinase; experiment: Binding affinity to recombinant N-terminal FLAG/His6-tagged human vanin-1 expressed in CHO cells assessed as dissociation constant by surface plasmon resonance analysis
[9] = biological target: T3, Pantetheinase (Homo sapiens); experiment: Binding affinity to recombinant N-terminal FLAG/His6-tagged human vanin-1 expressed in CHO cells assessed as binding constant (Koff) by surface plasmon resonance analysis
[10] = biological target: T2, Pantetheinase; experiment: Inhibition of recombinant N-terminal FLAG/His6-tagged human vanin-1 expressed in CHO cells at 10 uM by 1H NMR analysis; assay type: cell-based

Compound	Intrinsic clearance [1] [µL/min/mg]	Papp A→B [2] [nm/s]	logD [3]	IC50 [4] [nM]	IC50 [5] [nM]	K [6]	T1/2 [7] [s]	Kd [8] [nM]	K [9] [s⁻¹]	IC50 [10] [nM]
N#Cc1cccc(C(=O)c2cnc(NC3(c4ccccc4)CC3)nc2)c1	26	230	3							
CC(C)(Nc1ncc(C(=O)N2CCC3(CCOCC3)C2)cn1)c1cnccn1	18	170	0.6	3600	0.06					
N#Cc1cccc(C(=O)c2cnc(NCc3cncnc3)nc2)c1	16	230	1.2		33					
O=C(c1ccccc1)c1cnc(NCc2cccnc2)nc1	29	280	2.5		53					
N#CC1CCCN(C(=O)c2cnc(NC3(c4cncnc4)CC3)nc2)C1 (racemic)	< 11	15	-0.3	53000	10.4	6 10^6/M/s	26	7.2	0.026	45
O=C(c1cnc(NC2(c3cnccn3)COC2)nc1)N1CCC2(CCOCC2)C1	< 8	20	-2							
CS(=O)(=O)[C@H]1CCCN(C(=O)c2cnc(NC3(c4cncnc4)CC3)nc2)C1	< 8	6	-1		1100					
C[C@@H](Nc1ncc(C(=O)N2CCC3(CCOCC3)C2)cn1)c1cncnc1	< 8	60	0.2	> 50000						
N#C[C@@H]1CCCN(C(=O)c2cnc(NC3(c4cncnc4)CC3)nc2)C1	< 8	17	-0.4	12700	52					
O=C(c1cnc(NC2(c3cncnc3)COC2)nc1)N1CCC2(CCOCC2)C1	< 8	< 2	-3	1300						
C[C@H](Nc1ncc(C(=O)N2CC3(CCOCC3)C2)cn1)c1cnccn1	< 8	160	0.2	40	0.6					
O=C(c1cnc(NCc2cccnc2)nc1)N1CCC2(CCOCC2)C1	< 8	60	0.7	11300						
N#C[C@H]1CCCN(C(=O)c2cnc(NC3(c4cncnc4)CC3)nc2)C1					1200					
O=C(c1cnc(NC2(c3cncnc3)CC2)nc1)N1CCC2(CCOCC2)C1	< 10	20	0	1020						
O=C(c1cnc(NC2(c3cnccn3)CCC2)nc1)N1CCC2(CCOCC2)C1	14	120	1	8900	0.04					
O=C(c1cnc(NCc2cccnc2)nc1)c1cccs1	14.5	240	2.2							
N#Cc1cccc(C(=O)c2cnc(NCc3ccccc3)nc2)c1	48	190	3							
CS(=O)(=O)[C@@H]1CCCN(C(=O)c2cnc(NC3(c4cncnc4)CC3)nc2)C1	< 8	6	-1	62000	10.6					
N#Cc1cccc(C(=O)c2cnc(NCc3cccnc3)nc2)c1	38	280	2		4.4					
O=C(c1cnc(NCc2cnccn2)nc1)N1CC2(CCOCC2)C1	< 8	90	0	7400						
Cc1cccc(C(=O)c2cnc(NCc3cccnc3)nc2)c1	51	170	2.9		52					
C[C@@H](Nc1ncc(C(=O)N2CCC3(CCOCC3)C2)cn1)c1cnccn1	< 8	110	1	> 50000						
O=C(c1cnc(NCc2cncnc2)nc1)N1CCC2(CCOCC2)C1	12	30	0	11000						
CS(=O)(=O)C1CCCN(C(=O)c2cnc(NC3(c4cncnc4)CC3)nc2)C1 (racemic)	< 8	9	-0.8	> 13000	203	4.1 10^5/M/s	79	37	0.0088	122
C[C@H](Nc1ncc(C(=O)N2CCC3(CCOCC3)C2)cn1)c1cncnc1	< 8	70	2							
O=C(c1cnc(NC2(c3cncnc3)CCC2)nc1)N1CCC2(CCOCC2)C1	32	80	2							
O=C(c1cnc(NC2(c3cnccn3)CCC2)nc1)N1CC2(CCOCC2)C1	19	170	0.8		0.04					
CC(C)(Nc1ncc(C(=O)N2CCC3(CCOCC3)C2)cn1)c1cncnc1	15	40	0.5	1900	0.08					
